Data taken from PubChem BioAssay AID1919009 (Molecular Pharmacology Branch, DTP, NCI, 2023).
pIC50: −log10 of the molar value. Values joined by “and” are separate entries in the source; they are usually repeats but may differ in a detail not shown here. Equal entries are not always repeated.

System: K24384-001-R-PDC complex spheroid growth
Assay: Anticancer human tumor K24384-001-R-PDC patient-derived pancreatic adenocarcinoma cell line growth inhibition [AhR]
Details: for viability, T/C: stronger effect = lower value
How it was run: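 Agents were dosed in half-log steps down from roughly clinical Cmax, or from 10 microM where Cmax was unknown, alone and with AhR antagonists. Read-out: percent test/control growth of tumor spheroids containing HUVEC and MSC stromal cells.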

[1] = curve of first compound, second compound 0.1 µM
[2] = curve of first compound, second compound 0.316 µM
[3] = curve of first compound, second compound 1 µM
[4] = curve of first compound, second compound 3.16 µM
[5] = curve of first compound, second compound 10 µM
[6] = second compound 0.1 µM, first compound 0.0316 µM
[7] = second compound 0.1 µM, first compound 0.1 µM
[8] = second compound 0.316 µM, first compound 0.0316 µM
[9] = second compound 0.316 µM, first compound 0.1 µM
[10] = second compound 1 µM, first compound 0.0316 µM
[11] = second compound 1 µM, first compound 0.1 µM
[12] = second compound 3.16 µM, first compound 0.0316 µM
[13] = second compound 3.16 µM, first compound 0.1 µM
[14] = second compound 10 µM, first compound 0.0316 µM
[15] = second compound 10 µM, first compound 0.1 µM
[16] = second compound 0.1 µM, first compound 0.316 µM
[17] = second compound 0.1 µM, first compound 1 µM
[18] = second compound 0.1 µM, first compound 3.16 µM
[19] = second compound 0.1 µM, first compound 10 µM
[20] = second compound 0.316 µM, first compound 0.316 µM
[21] = second compound 0.316 µM, first compound 1 µM
[22] = second compound 0.316 µM, first compound 3.16 µM
[23] = second compound 0.316 µM, first compound 10 µM
[24] = second compound 1 µM, first compound 0.316 µM
[25] = second compound 1 µM, first compound 1 µM
[26] = second compound 1 µM, first compound 3.16 µM
[27] = second compound 1 µM, first compound 10 µM
[28] = second compound 3.16 µM, first compound 0.316 µM
[29] = second compound 3.16 µM, first compound 1 µM
[30] = second compound 3.16 µM, first compound 3.16 µM
[31] = second compound 3.16 µM, first compound 10 µM
[32] = second compound 10 µM, first compound 0.316 µM
[33] = second compound 10 µM, first compound 1 µM
[34] = second compound 10 µM, first compound 3.16 µM
[35] = second compound 10 µM, first compound 10 µM
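Throughout, for viability, T/C: percent of DMSO vehicle-treated spheroid viability set as 100%.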

Cn1ncnc1C1c2n[nH]c(=O)c3cc(F)cc(c23)NC1c1ccc(F)cc1 (centres undefined) + Cc1ccccc1N=Nc1ccc(NC(=O)c2ccnn2C)c(C)c1
pIC50 [1]: < 7.00 | pIC50 [2]: < 7.00 | pIC50 [3]: < 7.00 | pIC50 [4]: < 7.00 | pIC50 [5]: < 7.00 | viability, T/C (second compound 0.1 µM, first compound 0.000316 µM): 100% | viability, T/C (second compound 0.1 µM, first compound 0.001 µM): 110% | viability, T/C (second compound 0.1 µM, first compound 0.00316 µM): 110% | viability, T/C (second compound 0.1 µM, first compound 0.01 µM): 98.2% | viability, T/C [6]: 79% | viability, T/C [7]: 96.7% | viability, T/C (second compound 0.316 µM, first compound 0.000316 µM): 104% | viability, T/C (second compound 0.316 µM, first compound 0.001 µM): 112% | viability, T/C (second compound 0.316 µM, first compound 0.00316 µM): 75.8% | viability, T/C (second compound 0.316 µM, first compound 0.01 µM): 74.3% | viability, T/C [8]: 67.1% | viability, T/C [9]: 73.5% | viability, T/C (second compound 1 µM, first compound 0.000316 µM): 98.2% | viability, T/C (second compound 1 µM, first compound 0.001 µM): 84.3% | viability, T/C (second compound 1 µM, first compound 0.00316 µM): 73.3% | viability, T/C (second compound 1 µM, first compound 0.01 µM): 72.8% | viability, T/C [10]: 66.3% | viability, T/C [11]: 66% | viability, T/C (second compound 3.16 µM, first compound 0.000316 µM): 86.9% | viability, T/C (second compound 3.16 µM, first compound 0.001 µM): 87.8% | viability, T/C (second compound 3.16 µM, first compound 0.00316 µM): 87.6% | viability, T/C (second compound 3.16 µM, first compound 0.01 µM): 67.4% | viability, T/C [12]: 65.6% | viability, T/C [13]: 62.8% | viability, T/C (second compound 10 µM, first compound 0.000316 µM): 91.8% | viability, T/C (second compound 10 µM, first compound 0.001 µM): 84% | viability, T/C (second compound 10 µM, first compound 0.00316 µM): 102% | viability, T/C (second compound 10 µM, first compound 0.01 µM): 86% | viability, T/C [14]: 82.3% | viability, T/C [15]: 66.2%

CC1COCCN1c1cc(C2(S(C)(=N)=O)CC2)nc(-c2ccnc3[nH]ccc23)n1 (centres undefined) + Cc1ccccc1N=Nc1ccc(NC(=O)c2ccnn2C)c(C)c1
pIC50 [1]: 5.68 | pIC50 [2]: 5.63 | pIC50 [3]: 5.67 | pIC50 [4]: 5.81 | pIC50 [5]: 5.56 | viability, T/C [6]: 102% | viability, T/C [7]: 126% | viability, T/C [16]: 105% | viability, T/C [17]: 70.1% | viability, T/C [18]: 38.7% | viability, T/C [19]: 35.5% | viability, T/C [8]: 111% | viability, T/C [9]: 115% | viability, T/C [20]: 97.2% | viability, T/C [21]: 76.2% | viability, T/C [22]: 39.5% | viability, T/C [23]: 30.9% | viability, T/C [10]: 95.2% | viability, T/C [11]: 106% | viability, T/C [24]: 90.5% | viability, T/C [25]: 71.6% | viability, T/C [26]: 38.8% | viability, T/C [27]: 29.2% | viability, T/C [12]: 76.4% | viability, T/C [13]: 116% | viability, T/C [28]: 95.8% | viability, T/C [29]: 60.4% | viability, T/C [30]: 35.5% | viability, T/C [31]: 27.4% | viability, T/C [14]: 109% | viability, T/C [15]: 97.1% | viability, T/C [32]: 98.5% | viability, T/C [33]: 75.8% | viability, T/C [34]: 45.8% | viability, T/C [35]: 38.2%

O=C(c1cc(Cc2n[nH]c(=O)c3ccccc23)ccc1F)N1CCN(C(=O)C2CC2)CC1 + CC(CO)NC(=O)c1cc(-c2ccc(Cl)cc2)nn(-c2cnn(C)c2)c1=O
pIC50 [1]: < 5.00 | pIC50 [2]: < 5.00 | pIC50 [3]: < 5.00 | pIC50 [4]: < 5.00 | pIC50 [5]: < 5.00 | viability, T/C [6]: 92.9% | viability, T/C [7]: 95.3% | viability, T/C [16]: 89.2% | viability, T/C [17]: 76.7% | viability, T/C [18]: 66.8% | viability, T/C [19]: 62.2% | viability, T/C [8]: 108% | viability, T/C [9]: 99.6% | viability, T/C [20]: 103% | viability, T/C [21]: 82.3% | viability, T/C [22]: 73.3% | viability, T/C [23]: 70.4% | viability, T/C [10]: 99.8% | viability, T/C [11]: 104% | viability, T/C [24]: 99.2% | viability, T/C [25]: 72.3% | viability, T/C [26]: 76% | viability, T/C [27]: 67.9% | viability, T/C [12]: 90.6% | viability, T/C [13]: 96.7% | viability, T/C [28]: 83.5% | viability, T/C [29]: 78.3% | viability, T/C [30]: 63.5% | viability, T/C [31]: 59.2% | viability, T/C [14]: 74.5% | viability, T/C [15]: 72.7% | viability, T/C [32]: 74% | viability, T/C [33]: 71.9% | viability, T/C [34]: 65.8% | viability, T/C [35]: 69.7%

COc1cc(Nc2ncc3c(n2)-c2ccc(Cl)cc2C(c2c(F)cccc2OC)=NC3)ccc1C(=O)O + CC(CO)NC(=O)c1cc(-c2ccc(Cl)cc2)nn(-c2cnn(C)c2)c1=O
pIC50 [1]: 5.70 | pIC50 [2]: 5.11 | pIC50 [3]: < 5.00 | pIC50 [4]: < 5.00 | pIC50 [5]: < 5.00 | viability, T/C [6]: 87.6% | viability, T/C [7]: 80.7% | viability, T/C [16]: 84% | viability, T/C [17]: 57.6% | viability, T/C [18]: 44.5% | viability, T/C [19]: 45.5% | viability, T/C [8]: 81% | viability, T/C [9]: 79.9% | viability, T/C [20]: 76.4% | viability, T/C [21]: 57.5% | viability, T/C [22]: 48.4% | viability, T/C [23]: 51.6% | viability, T/C [10]: 92.3% | viability, T/C [11]: 77.7% | viability, T/C [24]: 79.4% | viability, T/C [25]: 60.5% | viability, T/C [26]: 49.5% | viability, T/C [27]: 55% | viability, T/C [12]: 90.6% | viability, T/C [13]: 73.4% | viability, T/C [28]: 72.5% | viability, T/C [29]: 54% | viability, T/C [30]: 62.3% | viability, T/C [31]: 58.6% | viability, T/C [14]: 94% | viability, T/C [15]: 77.1% | viability, T/C [32]: 80.7% | viability, T/C [33]: 69.7% | viability, T/C [34]: 64% | viability, T/C [35]: 65.8%

CC1COCCN1c1cc(-c2ccnn2C)c2ccnc(-c3ccn[nH]3)c2n1 (centres undefined)
viability, T/C (compound 0.00316 µM): 93% and 95.6% and 116% | viability, T/C (compound 0.01 µM): 92.2% and 102% and 116% | viability, T/C (compound 0.0316 µM): 82.7% and 80.5% and 89% | viability, T/C (compound 0.1 µM): 47.8% and 48.9% and 65% | viability, T/C (compound 0.316 µM): 30.6% and 29.8% and 41.7% | viability, T/C (compound 1 µM): 27.8% and 28.6% and 29.4% | pIC50 (curve of compound): 7.03 and 6.69

CC1(C)CCC(CN2CCN(c3ccc(C(=O)NS(=O)(=O)c4ccc(NCC5CCOCC5)c([N+](=O)[O-])c4)c(Oc4cnc5[nH]ccc5c4)c3)CC2)=C(c2ccc(Cl)cc2)C1
viability, T/C (compound 0.0316 µM): 104% (2×) and 108% | viability, T/C (compound 0.1 µM): 90.7% and 115% and 103% | viability, T/C (compound 0.316 µM): 90% and 103% and 106% | viability, T/C (compound 1 µM): 111% and 105% and 92.7% | viability, T/C (compound 3.16 µM): 126% and 88.2% and 84.7% | viability, T/C (compound 10 µM): 25.9% and 60.7% and 62.5% | pIC50 (curve of compound): 5.15 and < 5.00
